Measured values published in ChEMBL document CHEMBL1157056, “Synthesis and anti-inflammatory evaluation of some condensed [4-(3,4-dimethylphenyl)-1(2H)-oxo-phthalazin-2-yl]acetic acid hydrazide” (Eur J Med Chem, 2010).
The source made the active and inactive calls. No cut-off for these calls is given here.

System: Rattus norvegicus
Test: Antiinflammatory activity in rat at 20 mg/kg, ip after 10 days by sponge implantation method
Type: functional, organism-based
Parameters: dose 20 mg/kg

Compound	Activity
CC1=NN(C(=O)Cn2nc(-c3ccc(C)c(C)c3)c3ccccc3c2=O)C(=O)C1	Active
CCO/C=N/NC(=O)Cn1nc(-c2ccc(C)c(C)c2)c2ccccc2c1=O	Active
Cc1ccc(-c2nn(CC(=O)N/N=C/NN)c(=O)c3ccccc23)cc1C	Active
Cc1ccc(-c2nn(CC(=O)NNC(=S)NCc3ccccc3)c(=O)c3ccccc23)cc1C	Active
Cc1ccc(-c2nn(Cc3n[nH]c(=S)o3)c(=O)c3ccccc23)cc1C	Active
